Here are results for 20 compounds from patent publication US20250154173A1 (Merck Sharp & Dohme LLC, priority 2023, published 2025).

SMILES strings stand for the structures.

This experiment deals with T1, GST-RIPK1 (recombinant GST-RIPK1 kinase domain (residues 1-327)) (Homo sapiens, UniProt Q13546).
T1 construct: recombinant GST-RIPK1 kinase domain (residues 1-327) enzyme produced from baculovirus-transfected Sf21 cells; host or cells: baculovirus-transfected Sf21 insect cells
T1 sequence (Q13546 1-327): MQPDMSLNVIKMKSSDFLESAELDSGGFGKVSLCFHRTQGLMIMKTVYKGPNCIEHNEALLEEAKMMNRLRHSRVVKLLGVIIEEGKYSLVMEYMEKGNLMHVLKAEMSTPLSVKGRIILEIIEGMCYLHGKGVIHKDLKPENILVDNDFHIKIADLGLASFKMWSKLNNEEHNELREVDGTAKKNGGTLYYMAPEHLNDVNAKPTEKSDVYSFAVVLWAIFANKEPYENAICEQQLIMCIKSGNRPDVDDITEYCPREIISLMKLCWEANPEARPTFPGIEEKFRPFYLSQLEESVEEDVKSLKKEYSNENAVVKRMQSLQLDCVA
The experiment is described as follows: RIPK1-ADP-Glo Enzymatic Assay. The experiment is classed as biochemical. Conditions: ten-point titration, top compound concentration of 100000 nM; 25 nM GST-RIPK1, 300 μM ATP, 3 μM dephosphorylated-MBP; 30 min pre-incubation, 150 min reaction. The essentials: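 ADP-Glo luminescence quantifies ADP formed over 150 minutes by 25 nM Sf21-produced GST-RIPK1 (1-327) using 300 μM ATP and 3 μM dephosphorylated MBP, following 30-minute compound preincubation at 1% DMSO. Ten-point 1:3 series from 100000 nM gave EC50 via four-parameter sigmoidal regression.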
Background: ADP-Glo first removes unused ATP, then detects ADP through luciferase.

As to `O=C1N2C(CC[C@H]2c2cnccn2)OC12CC(OCc1cc3ncccc3s1)C2` (stereo partly drawn) [Example 18.91, (5′S)-5′-(pyrazin-2-yl)-3-[(thieno[3,2-b]pyridin-2-yl)methoxy]tetrahydro-3′H-spiro[cyclobutane-1,2′-pyrrolo[2,1-b][1,3]oxazol]-3′-one], the EC50 (in general, the concentration at which the effect is half-maximal) is 22 nM.

`O=C1N2[C@@H](CC[C@H]2c2cnccn2)OC12CC(OCC1CCC1)C2` (single isomer, unassigned) [Example 23.2, (5′S,7a′R)-3-(cyclobutylmethoxy)-5′-(pyrazin-2-yl)tetrahydro-3′H-spiro[cyclobutane-1,2′-pyrrolo[2,1-b]oxazol]-3′-one]: the EC50 amounted to 577 nM.

Regarding `Cc1ccc(OC2CC3(C2)O[C@@H]2CC[C@@H](c4ccn(C)n4)N2C3=O)cn1` (stereo partly drawn) [Example 19.12, (5′S,7a′R)-5′-(1-methyl-1H-pyrazol-3-yl)-3-[(6-methylpyridin-3-yl)oxy]tetrahydro-3′H-spiro[cyclobutane-1,2′-pyrrolo[2,1-b][1,3]oxazol]-3′-one], the EC50 was 790 nM.

As for `O=C1N2[C@@H](CC[C@H]2c2cnccn2)OC12CC(OCc1ccc3cnoc3c1)C2` (stereo partly drawn) [Example 18.110, (5′S,7a′R)-3-(benzo[d]isoxazol-6-ylmethoxy)-5′-(pyrazin-2-yl)tetrahydro-3′H-spiro[cyclobutane-1,2′-pyrrolo [2,1-b]oxazol]-3′-one], the EC50 stood at 44 nM.

In the case of `CC(OC1CC2(C1)O[C@@H]1CC[C@@H](c3cc(F)cc(F)c3)N1C2=O)c1ncccc1F` (single isomer, unassigned) [Example 12.3, (1R or S,3R or S,5′S,7a′R)-5′-(3,5-difluorophenyl)-3-((R or S)-1-(3-fluoropyridin-2-yl)ethoxy)tetrahydro-3′H-spiro[cyclobutane-1,2′-pyrrolo[2,1-b]oxazol]-3′-one], the EC50 was determined as 239 nM.

As for `O=C1N2C(CC[C@H]2c2cnccn2)OC12CC(OCc1csc3ncccc13)C2` (stereo partly drawn) [Example 18.18, (5′S)-5′-(pyrazin-2-yl)-3-[(thieno[2,3-b]pyridin-3-yl)methoxy]tetrahydro-3′H-spiro[cyclobutane-1,2′-pyrrolo[2,1-b][1,3]oxazol]-3′-one], the EC50 is 18 nM.

On to `O=C1N2[C@@H](CC[C@H]2c2ncccc2F)OC12CC(Oc1ncnn3cccc13)C2` (stereo partly drawn) [Example 9.62, (5′S,7a′R)-5′-(3-fluoropyridin-2-yl)-3-[(pyrrolo[2,1-f][1,2,4]triazin-4-yl)oxy]tetrahydro-3′H-spiro[cyclobutane-1,2′-pyrrolo[2,1-b][1,3]oxazol]-3′-one], for which the EC50 is 10.2 nM.

Regarding `Cn1cc2cc(COC3CC4(C3)O[C@@H]3CC[C@@H](c5cnccn5)N3C4=O)ccc2n1` (stereo partly drawn) [Example 20.3, (5′S,7a′R)-3-[(2-methyl-2H-indazol-5-yl)methoxy]-5′-(pyrazin-2-yl)tetrahydro-3′H-spiro[cyclobutane-1,2′-pyrrolo[2,1-b][1,3]oxazol]-3′-one], the EC50 was determined as 126 nM.

Take `COCCOc1ccc(COC2CC3(C2)OC2CC[C@@H](c4cnccn4)N2C3=O)cc1` (stereo partly drawn) [Example 18.50, (5′S)-3-{[4-(2-methoxyethoxy)phenyl]methoxy}-5′-(pyrazin-2-yl)tetrahydro-3′H-spiro[cyclobutane-1,2′-pyrrolo[2,1-b][1,3]oxazol]-3′-one]: the EC50 stood at 65 nM.

As for `CS(=O)(=O)c1ccc(COC2CC3(C2)OC2CC[C@@H](c4cnccn4)N2C3=O)cc1` (stereo partly drawn) [Example 18.17, (5′S)-3-{[4-(methylsulfonyl)phenyl]methoxy}-5′-(pyrazin-2-yl)tetrahydro-3′H-spiro[cyclobutane-1,2′-pyrrolo[2,1-b][1,3]oxazol]-3′-one], the EC50 turned out to be 145 nM.

Turning to `Cn1ccc([C@@H]2CC[C@H]3OC4(CC(Oc5cccnc5)C4)C(=O)N32)n1` (stereo partly drawn) [Example 19.11, (5′S,7a′R)-5′-(1-methyl-1H-pyrazol-3-yl)-3-[(pyridin-3-yl)oxy]tetrahydro-3′H-spiro[cyclobutane-1,2′-pyrrolo[2,1-b][1,3]oxazol]-3′-one], the EC50 was 209 nM.

As to `N#Cc1ccc(COC2CC3(C2)OC2CC[C@@H](c4cnccn4)N2C3=O)c2cccnc12` (stereo partly drawn) [Example 18.65, 5-({[(5′S)-3′-oxo-5′-(pyrazin-2-yl)tetrahydro-3′H-spiro[cyclobutane-1,2′-pyrrolo[2,1-b][1,3]oxazol]-3-yl]oxy}methyl)quinoline-8-carbonitrile], the EC50 was determined as 32 nM.

In the case of `O=C1N2C(CC[C@H]2c2cnccn2)OC12CC(OCc1cccc3nccn13)C2` (stereo partly drawn) [Example 18.84, (5′S)-3-[(imidazo[1,2-a]pyridin-5-yl)methoxy]-5′-(pyrazin-2-yl)tetrahydro-3′H-spiro[cyclobutane-1,2′-pyrrolo[2,1-b][1,3]oxazol]-3′-one], the EC50 came out at 182 nM.

On to `O=C1N2[C@@H](CC[C@H]2c2cnccn2)OC12CC(OCc1cccc(Cl)c1)C2` (stereo partly drawn) [Example 22.6, (5′S,7a′R)-3-[(3-chlorophenyl)methoxy]-5′-(pyrazin-2-yl)tetrahydro-3′H-spiro[cyclobutane-1,2′-pyrrolo[2,1-b][1,3]oxazol]-3′-one], for which the EC50 came out at 15 nM.

Regarding `O=C1N2[C@@H](CC[C@H]2c2ccccc2)OC12CC(Oc1cccc(C(F)(F)F)c1)C2` (stereo partly drawn) [Example 8.15, (5′S,7a′R)-5′-phenyl-3-[3-(trifluoromethyl)phenoxy]tetrahydro-3′H-spiro[cyclobutane-1,2′-pyrrolo[2,1-b][1,3]oxazol]-3′-one], the EC50 is 37 nM.

For `N#Cc1cc(O[C@H]2C[C@@]3(C2)O[C@H]2CC[C@H](c4cnccn4)N2C3=O)ncn1` [Example 9.50, 6-(((5′R,7a′S)-3′-oxo-5′-(pyrazin-2-yl)tetrahydro-3′H-spiro[cyclobutane-1,2′-pyrrolo[2,1-b]oxazol]-3-yl)oxy)pyrimidine-4-carbonitrile], the EC50 is 330 nM.

With `O=C1N2[C@@H](CC[C@H]2c2cc(F)cc(F)c2)O[C@]12C[C@H](Oc1cccn3nnnc13)C2` [Example 9.25, (1r,3R,5′S,7a′R)-5′-(3,5-difluorophenyl)-3-[(tetrazolo[1,5-a]pyridin-8-yl)oxy]tetrahydro-3′H-spiro[cyclobutane-1,2′-pyrrolo[2,1-b][1,3]oxazol]-3′-one], the EC50 is 210 nM.

In the case of `N#Cc1ccnc(O[C@H]2C[C@@]3(C2)O[C@@H]2CC[C@@H](c4cc(F)cc(F)c4)N2C3=O)n1` [Example 9.20, 2-{[(1r,3R,5′S,7a′R)-5′-(3,5-difluorophenyl)-3′-oxotetrahydro-3′H-spiro[cyclobutane-1,2′-pyrrolo[2,1-b][1,3]oxazol]-3-yl]oxy}pyrimidine-4-carbonitrile], the EC50 came to 53 nM.

As for `O=C1N2C(CC[C@H]2c2cnccn2)OC12CC(OCc1cc3cncnc3s1)C2` (stereo partly drawn) [Example 18.107, (5′S)-5′-(pyrazin-2-yl)-3-(thieno[2,3-d]pyrimidin-6-ylmethoxy)tetrahydro-3′H-spiro[cyclobutane-1,2′-pyrrolo[2,1-b]oxazol]-3′-one], the EC50 came to 34 nM.

As for `O=C1N2[C@@H](CC[C@H]2c2cnccn2)OC12CC(Oc1cccnc1)C2` (stereo partly drawn) [Example 19.21, (5′S,7a′R)-5′-(pyrazin-2-yl)-3-[(pyridin-3-yl)oxy]tetrahydro-3′H-spiro[cyclobutane-1,2′-pyrrolo[2,1-b][1,3]oxazol]-3′-one], the EC50 is 27 nM.
